Where two headings read alike, the source gives them in different places.
Columns and labels:
hippocampal CA1 neurons = conditions: cited from earlier work
liver cells = conditions: oxidative stress-activated NSCCs; cited from earlier work
[1] = tested on: nsPEF-opened conductance pores; assay: whole-cell patch clamp of membrane conductance/resistance after nsPEF exposure; type: cell-based; conditions: for condition of nsPEF-exposed cells: added prior to exposure to 1 or 5 pulses
Description: Patch clamp recording: Cells on a cover slip were transferred into a glass-bottomed chamber (Warner Instruments, Hamden, Conn.) mounted on a motorized stage (Prior Scientific Inc., Rockland, Mass.) of an IX71 FluoView™ 300 confocal laser scanning microscope. Recording pipettes were pulled from 1B150F-4 glass (World Precision Instruments, Sarasota, Fla.) to a tip resistance of 1.5-3 MOhm and moved into a position with a model 6500 hydraulic micromanipulator (Siskiyou, Grants Pass, Oreg.). Electrophysiology data were acquired using a Multiclamp 700B amplifier, Digidata 1322A A-D converter, and pCLAMP 10 software (Molecular Devices, Foster City, Calif.). The analog signal was low-pass filtered at 2 or 5 kHz, and digitized at “oversampling” rates of 10 to 50 kHz. The series resistance was not compensated. Typical values of the seal and access resistance were 4-15 GOhm and 4-10 MOhm, respectively, except for a solution pair HEPES/Cl. […] The data from these experiments were analyzed differently (see below).
As shown in the inventors preliminary experiments, nsPEF exposure could be damaging to the gigaohmic seal between the cell membrane and the glass pipette, thereby effectively destroying the patch-clamp recording configuration. […] The exposure of intact (rather than already “patched”) cells effectively removed any concerns about possible artifacts caused by the presence of the glass pipette during the exposure.
Once the whole-cell configuration was formed, the membrane resistance and capacitance (Rm and Cm) were measured using the Membrane Test utility of pClamp10 software. The holding level was set at −70 or −60 mV; 10- or 20-mV test pulses were applied at 30- to 100-Hz rates and averaged on-line (n=6-12). The membrane potential (MP) was measured by switching briefly from voltage to current clamp mode at I=0.
After Cm compensation, the holding membrane potential was set to −70 mV. In most experiments, the I-V relationship was obtained by applying voltage ramps, typically from −100 to +100 mV within 20-40 ms, and preceded by a brief step to −100 mV. Passive Gm was determined as the slope of the I-V curve by a best fit linear approximation through a region that contained no visible voltage-gated currents, usually from −80 to −50 mV. As one would expect, these Gm values correlated very closely with the inverse of Rm values measured using the Membrane Test. Erev was determined in a usual manner, as an intercept of the best fit line with abscissa.
Exposure to nsPEF and local E-field modeling: A Blumlein line pulse generator (Kolb, J. F., S. Kono, and K. H. Schoenbach. 2006. Nanosecond pulsed electric field generators for the study of subcellular effects. Bioelectromagnetics 27:172-187) produced nearly rectangular 60-ns pulses that were delivered to the selected cell by a pair of tungsten electrodes (0.125 mm electrode diameter, 0.31 mm gap between the electrodes). With a help of a micromanipulator, the electrodes were positioned 5-10 μm above the surface of the cover slip on the sides of the selected cell; the cell was in the middle of the gap between the electrodes, at a distance of about 50-100 μm from their tips.
To check if activation of endogenous NSCCs was responsible (at least in part) for observed nsPEF effects, an attempt was made by the inventors to modify these effects with ruthenium red and with lanthanide ions. It should be noted, however, that these substances are not truly specific and can affects various other channels and intracellular processes.
Ruthenium red was added to the bath solution of the K/Na pair (see Table 1) at 10, 50, or 200 μM prior to exposure to 1 or 5 pulses, and the whole-cell currents were recorded after the exposure in the usual manner.

Compound	swelling and other deleterious effects of oxygen-glucose deprivation (hippocampal CA1 neurons; 100 μM)	number of necrotic cells (liver cells)	protective effect against nsPEF permeabilization ([1]; 0.2 mM, initial trials)	swelling and other deleterious effects of oxygen-glucose deprivation (hippocampal CA1 neurons; 1 μM)	effect on membrane conductance increase by nsPEF ([1]; 10 μM in bath of K/Na pair, added prior to exposure)	effect on control (sham-exposed) cells ([1]; 50 μM in bath of K/Na pair)	condition of nsPEF-exposed cells ([1]; 50 μM in bath of K/Na pair)	effect on control (sham-exposed) cells ([1]; 200 μM in bath of K/Na pair)	condition of nsPEF-exposed cells ([1]; 200 μM in bath of K/Na pair)
[Cl][Gd]([Cl])[Cl] [Gd^3+, GdCl3]	reduced swelling	sharply decreased	no protection	–	–	–	–	–	–
[Cl][La]([Cl])[Cl] [La^3+, LaCl3]	reduced swelling	–	–	–	–	–	–	–	–
N.N.N.N.N.N.N.N.N.N.N.N.N.N.[Cl-].[Cl-].[Cl-].[Cl-].[Cl-].[Cl-].[O-2].[O-2].[Ru+3].[Ru+3].[Ru+4] [ruthenium red]	–	–	–	reduced swelling	neither enhanced nor inhibited	no apparent effect	worsened the condition of nsPEF-exposed cells	no apparent effect	worsened the condition of nsPEF-exposed cells
